SMILES strings stand for the structures. Some results are limits rather than exact numbers.

Assay [1] has as its system Spodoptera litura. In words: Insecticidal activity against last-instar Spodoptera litura larvae assessed as partial pupation at 50 ug/larvae topical application (reference value: […]). Format: functional.
For assay [2], the system named is Mamestra brassicae. As to the kind of experiment: Insecticidal activity against last-instar Mamestra brassicae larvae assessed as partial pupation injected at 10 ug/larvae (reference value: 10%). Format: functional.
Assay [3] relates to Mamestra brassicae. In words: Insecticidal activity against last-instar Mamestra brassicae larvae assessed as wing pad separation at 50 ug/larvae oral administration (reference value: 0%). Format: functional.
Assay [4] relates to Mamestra brassicae. As to the kind of experiment: Insecticidal activity against last-instar Mamestra brassicae larvae assessed as wing pad separation injected at 5 ug/larvae (reference value: 0%). Format: functional.
In assay [5] the test system is Mamestra brassicae. As to the kind of experiment: Insecticidal activity against last-instar Mamestra brassicae larvae assessed as partial pupation injected at 5 ug/larvae (reference value: 10%). Format: functional.
Assay [6] has as its system Mamestra brassicae. As to the kind of experiment: Insecticidal activity against last-instar Mamestra brassicae larvae assessed as partial pupation injected at 50 ug/larvae (reference value: 10%). The class given is functional.
Assay [7] has as its system Mamestra brassicae. As to the kind of experiment: Insecticidal activity against last-instar Mamestra brassicae larvae assessed as larval-pupal intermediate at 50 ug/larvae oral administration (reference value: 0%). The class given is functional.
Assay [8] deals with Mamestra brassicae. In words: Insecticidal activity against last-instar Mamestra brassicae larvae assessed as normal pupae injected at 50 ug/larvae (reference value: 90%). Format: functional.
The target in another assay is T1, Vacuolar acid trehalase (Saccharomyces cerevisiae (strain ATCC 204508 / S288c) (Baker's yeast), UniProt P48016).
T1 sequence (P48016 whole entry): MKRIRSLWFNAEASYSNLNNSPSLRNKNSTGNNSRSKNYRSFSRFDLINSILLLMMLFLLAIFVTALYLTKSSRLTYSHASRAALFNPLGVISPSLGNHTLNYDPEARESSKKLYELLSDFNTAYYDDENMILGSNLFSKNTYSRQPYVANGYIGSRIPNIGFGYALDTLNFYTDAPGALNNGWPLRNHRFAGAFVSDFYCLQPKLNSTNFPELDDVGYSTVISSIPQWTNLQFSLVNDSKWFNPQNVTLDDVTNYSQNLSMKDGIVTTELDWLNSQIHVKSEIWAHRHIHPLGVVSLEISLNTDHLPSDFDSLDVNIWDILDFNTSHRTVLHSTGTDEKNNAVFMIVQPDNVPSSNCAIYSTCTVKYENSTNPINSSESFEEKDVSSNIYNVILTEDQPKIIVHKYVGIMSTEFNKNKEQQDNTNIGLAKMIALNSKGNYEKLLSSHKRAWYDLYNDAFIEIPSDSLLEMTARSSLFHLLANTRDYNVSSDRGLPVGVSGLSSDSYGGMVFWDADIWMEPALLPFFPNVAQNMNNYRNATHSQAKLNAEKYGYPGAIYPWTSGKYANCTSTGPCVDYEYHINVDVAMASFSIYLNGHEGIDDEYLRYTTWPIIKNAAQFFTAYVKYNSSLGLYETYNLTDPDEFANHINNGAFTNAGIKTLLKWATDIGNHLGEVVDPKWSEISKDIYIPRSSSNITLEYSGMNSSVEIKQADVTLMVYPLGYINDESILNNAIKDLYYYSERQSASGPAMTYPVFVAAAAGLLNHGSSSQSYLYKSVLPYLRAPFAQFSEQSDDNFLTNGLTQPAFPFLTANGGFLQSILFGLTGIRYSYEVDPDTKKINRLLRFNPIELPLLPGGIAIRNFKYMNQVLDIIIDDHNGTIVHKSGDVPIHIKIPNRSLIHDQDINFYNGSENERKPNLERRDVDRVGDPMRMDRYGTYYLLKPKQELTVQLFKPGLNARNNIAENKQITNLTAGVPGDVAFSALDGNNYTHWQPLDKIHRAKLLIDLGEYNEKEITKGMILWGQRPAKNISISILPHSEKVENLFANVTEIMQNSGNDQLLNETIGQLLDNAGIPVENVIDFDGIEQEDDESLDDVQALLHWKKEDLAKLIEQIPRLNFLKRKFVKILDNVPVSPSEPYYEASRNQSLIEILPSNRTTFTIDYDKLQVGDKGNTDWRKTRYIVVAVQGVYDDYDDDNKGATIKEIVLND
As to the kind of experiment: Inhibition of Saccharomyces cerevisiae trehalase. Conditions: read-out: I50.

Assay [9] has as its system Spodoptera litura. In words: Insecticidal activity against last-instar Spodoptera litura larvae assessed as normal pupae injected at 50 ug/larvae (reference value: 100%). Format: functional.
A short description of assay [10]: Inhibition of Rhizoctonia solani alpha-glucosidase. Conditions: read-out: I50.
Another assay concerns the target T2, Chitinase A1 (Thanatephorus cucumeris (strain AG1-IB / isolate 7/3/14) (Lettucebottom rot fungus) (Rhizoctonia solani), UniProt M5BZV0).
T2 sequence (M5BZV0 whole entry): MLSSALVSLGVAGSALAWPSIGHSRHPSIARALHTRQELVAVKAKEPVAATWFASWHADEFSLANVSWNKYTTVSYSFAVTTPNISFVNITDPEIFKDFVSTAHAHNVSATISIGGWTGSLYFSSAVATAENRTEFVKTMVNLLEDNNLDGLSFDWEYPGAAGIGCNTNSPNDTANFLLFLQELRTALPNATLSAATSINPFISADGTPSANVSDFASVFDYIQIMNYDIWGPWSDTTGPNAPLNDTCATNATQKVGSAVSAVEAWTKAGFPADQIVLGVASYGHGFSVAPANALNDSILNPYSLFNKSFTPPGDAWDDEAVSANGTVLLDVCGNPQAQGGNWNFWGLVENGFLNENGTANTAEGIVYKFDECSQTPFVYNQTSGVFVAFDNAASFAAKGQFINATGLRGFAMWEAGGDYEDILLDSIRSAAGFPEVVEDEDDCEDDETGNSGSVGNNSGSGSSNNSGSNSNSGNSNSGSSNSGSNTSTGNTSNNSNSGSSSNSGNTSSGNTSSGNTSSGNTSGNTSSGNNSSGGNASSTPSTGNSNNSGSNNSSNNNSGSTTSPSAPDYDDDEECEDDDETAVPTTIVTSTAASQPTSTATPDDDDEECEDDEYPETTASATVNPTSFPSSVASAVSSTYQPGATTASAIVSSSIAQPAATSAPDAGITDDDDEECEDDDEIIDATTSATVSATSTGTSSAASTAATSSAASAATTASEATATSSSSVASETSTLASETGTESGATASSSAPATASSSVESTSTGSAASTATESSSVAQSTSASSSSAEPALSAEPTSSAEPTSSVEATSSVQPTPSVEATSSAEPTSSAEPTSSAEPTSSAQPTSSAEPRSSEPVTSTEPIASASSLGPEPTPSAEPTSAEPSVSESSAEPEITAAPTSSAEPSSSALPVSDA
As to the kind of experiment: Inhibition of Rhizoctonia solani chitinase. Conditions: read-out: I50.

Assay [11] concerns Spodoptera litura. As to the kind of experiment: Insecticidal activity against last-instar Spodoptera litura larvae assessed as wing pad separation injected at 10 ug/larvae (reference value: 100%). Format: functional.
Assay [12] relates to Mamestra brassicae. In words: Insecticidal activity against last-instar Mamestra brassicae larvae assessed as wing pad separation at 50 ug/larvae topical application (reference value: 0%). The class given is functional.
The test system of assay [13] is Spodoptera litura. In words: Insecticidal activity against last-instar Spodoptera litura larvae assessed as normal pupae injected at 2 ug/larvae (reference value: 100%). Format: functional.
Assay [14] in a line: Inhibition of Rhizoctonia solani beta-glucosidase. The note with it: read-out: I50.
Assay [15] has as its system Mamestra brassicae. In words: Insecticidal activity against last-instar Mamestra brassicae larvae assessed as wing pad separation injected at 10 ug/larvae (reference value: 0%). Format: functional.
Assay [16] deals with Mamestra brassicae. As to the kind of experiment: Insecticidal activity against last-instar Mamestra brassicae larvae assessed as normal pupae injected at 1 ug/larvae (reference value: 90%). Format: functional.

For the compound `OCC1=C[C@H](N[C@H]2C[C@H](CO)[C@@H](O)[C@H](O)[C@H]2O)[C@H](O)[C@@H](O)[C@@H]1O` [VALIDOXYLAMINE A], the Activity in the assay on Spodoptera litura [1] worked out at 5%; in the assay with Mamestra brassicae [2] it was 13%; with Mamestra brassicae [3], 10%; in the assay with Mamestra brassicae [4] it was 7%; in the assay with Mamestra brassicae [5] it was 27%; with Mamestra brassicae [6], 0%. The Activity in the assay on Mamestra brassicae [7] worked out at 0%; in the assay on Mamestra brassicae [8], 0%; with Spodoptera litura [9] it was 0%; in the assay with Spodoptera litura [11], 15%; with Mamestra brassicae [12], 0%; in the assay on Spodoptera litura [13], 60%. The Activity in the assay with Mamestra brassicae [15] stood at 7%; in the assay on Mamestra brassicae [16], 27%. Besides, the IC50 is 0.003 µM at Vacuolar acid trehalase, over 1000 µM in assay [10], over 1000 µM on Chitinase A1 and over 1000 µM in assay [14].
